Assay results taken from patent US8598203B2 (Teva Pharmaceutical Industries, Ltd., priority 2009, dated 2013).

Assays:
[1] = background statement; cited from earlier work
[2] = previous pharmacokinetic studies of laquinimod (time to steady state, oral bioavailability); format: in vivo; settings: with loading dose regimen (double the intended dose for the first two days)
Text: In order to decrease thee time to steady state and potentially decrease time to response, a loading dose regimen described below is used to allow steady state levels to be reached in approximately 6-7 days.

[3] = tested on: subjects with moderate to severe Crohn's disease (CDAI score of 220-450); assay: Phase IIa clinical trial of oral laquinimod in active moderate to severe Crohn's disease; format: in vivo, human; settings: for dependence on steroids: moderate to severe Crohn's disease; for C-Reactive Protein level / clinical remission / clinical response / disease progression and/or disease complication / fecal calprotein level / number of open draining fistulas / symptoms of Crohn's disease: moderate to severe Crohn's disease (CDAI 220-450)
Description: Overall up to ˜180 Crohn's disease patients are enrolled. […] The capsules were prepared using a blend proportional to the 0.6 mg capsules described in PCT International Application No. PCT/US2007/013721 (WO 2007/146248). The capsules were prepared according to the method described in PCT International Application No. PCT/US2007/013721 (WO 2007/146248), which is hereby incorporated by reference into this application. A loading dose regimen of double the maintenance/intended dose is given during the first two days of study drug treatment. Thereafter, starting on day 3, the daily maintenance/intended dose is administered. Subjects are required to maintain CDAI diary cards for each day of the screening period and, if randomized, on each day of the treatment and follow-up period. The scores obtained from the seven consecutive diaries completed prior to the baseline visit and to each of weeks 1, 2, 4, 6, 8 and 12 contribute to a total CDAI score at each of the time points. Moderate to severe Crohn's disease (CD) subjects as determined by a Crohn's Disease Activity Index (CDAI) score of 220-450 (inclusive). […] Each dose is studied sequentially in a distinct cohort. Scheduled in-clinic visits are conducted at screening, baseline and at weeks 1, 2, 4, 6 and 8. […] Subjects who early-discontinues study drug prior to visit week 8 go to follow-up termination visit within 4 weeks (28 days) of study drug discontinuation. A loading dose regimen of the study drug is given during the first two days of treatment (day 1/baseline and thereafter). The first loading dose of the study is administered at the site. The loading dose is double the intended dose for the first two days and is administered twice daily (BID) with 12 hour interval between dosing. Thereafter, starting on day 3, the dosing regimen consists of the intended dose once daily (QD) (see Table 1): • 1. Day 1 (Baseline): loading dose of the drug (intended dose at 0 hour, at the site and intended dose at 12 hours). Total dose is twice the intended dose. • 2. Day 2: loading dose of the study drug (intended dose at 0 hour and intended dose at 12 hours). Total dose is twice the intended dose. • 3. Day 3: Intended/maintenance dose of the study drug. […] Proportion of subjects in clinical remission (total CDAI score <150) at weeks 4, 6, 8 and 12. • 2. Proportion of subjects who respond to treatment (decrease from baseline of at least 100 points in CDAI score ore remission) at week 4, 6, 8 and 12. • 3. Time to remission. • 4. Time to response. • 5. C-Reactive Protein (CRP) change from baseline at weeks 2, 4, 6, 8 and 12. • 6. Fecal calprotectin change from baseline to weeks 2, 4, 6, 8 and 12. • 7. Proportion of subjects with a decrease from baseline of at least 50% in the number of open draining fistulas. Safety/Tolerability • 1. Adverse events (AEs). • 2. Clinical laboratory values. • 3. Vital signs. • 4. ECG. • 5. Proportion of subjects who prematurely discontinue treatment. • 6. Proportion of subjects who prematurely discontinue treatment due to AEs. • 7. Time to premature treatment discontinuation. • 8. Time to premature treatment discontinuation due to AEs. Determination of the Highest Tolerable Dose

time to reach steady state levels [2]: 6 to 7 days
SMILES: CCN(C(=O)c1c(O)c2c(Cl)cccc2n(C)c1=O)c1ccccc1 [laquinimod]
oral bioavailability [1]: high oral bioavailability | dependence on steroids ([3]; 0.5 mg/day oral): lowers | C-Reactive Protein level ([3]; 0.5 mg/day oral): lowers | clinical remission ([3]; 0.5 mg/day oral): induces and/or maintains | clinical response ([3]; 0.5 mg/day oral): induces | disease progression and/or disease complication ([3]; 0.5 mg/day oral): inhibits | fecal calprotein level ([3]; 0.5 mg/day oral): lowers | number of open draining fistulas ([3]; 0.5 mg/day oral): reduces | symptoms of Crohn's disease ([3]; 0.5 mg/day oral): reduces | dependence on steroids ([3]; 1.0 mg/day oral): lowers | C-Reactive Protein level ([3]; 1.0 mg/day oral): lowers | clinical remission ([3]; 1.0 mg/day oral): induces and/or maintains | clinical response ([3]; 1.0 mg/day oral): induces | disease progression and/or disease complication ([3]; 1.0 mg/day oral): inhibits | fecal calprotein level ([3]; 1.0 mg/day oral): lowers | number of open draining fistulas ([3]; 1.0 mg/day oral): reduces | symptoms of Crohn's disease ([3]; 1.0 mg/day oral): reduces | dependence on steroids ([3]; 1.5 mg/day oral): lowers | C-Reactive Protein level ([3]; 1.5 mg/day oral): lowers | clinical remission ([3]; 1.5 mg/day oral): induces and/or maintains | clinical response ([3]; 1.5 mg/day oral): induces | disease progression and/or disease complication ([3]; 1.5 mg/day oral): inhibits | fecal calprotein level ([3]; 1.5 mg/day oral): lowers | number of open draining fistulas ([3]; 1.5 mg/day oral): reduces | symptoms of Crohn's disease ([3]; 1.5 mg/day oral): reduces | dependence on steroids ([3]; 2.0 mg/day oral): lowers | C-Reactive Protein level ([3]; 2.0 mg/day oral): lowers | clinical remission ([3]; 2.0 mg/day oral): induces and/or maintains | clinical response ([3]; 2.0 mg/day oral): induces | disease progression and/or disease complication ([3]; 2.0 mg/day oral): inhibits | fecal calprotein level ([3]; 2.0 mg/day oral): lowers | number of open draining fistulas ([3]; 2.0 mg/day oral): reduces | symptoms of Crohn's disease ([3]; 2.0 mg/day oral): reduces
